Measured values: patent US6737383B1, “Herbicidal oxadiazolidines” (priority 1999, dated 2004)

Legend:
velvetleaf = test: Test B pre/postemergence velvetleaf; format: in vivo, Abutilon theophrasti
Outline: (§1)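 Response is a visual 0-to-10 score relative to untreated plants, where 0 means no effect and 10 means complete control, taken twelve to sixteen days after application. Treatments went onto soil at planting and onto foliage of 1- to 4-leaf plants, using a surfactant-containing non-phytotoxic solvent.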

blackgrass = test: Test B pre/postemergence blackgrass; format: in vivo, Alopecurus myosuroides
Outline: as §1

sugar beet = test: Test B pre/postemergence sugar beet; format: in vivo, Beta vulgaris
Outline: as §1

purple nutsedge = test: Test B pre/postemergence purple nutsedge; format: in vivo, Cyperus rotundus
Outline: as §1

bedstraw = test: Test B pre/postemergence bedstraw; format: in vivo, Galium aparine; conditions: for Plant response rating, Bedstraw: Rate 62 g/ha, scale of 0 to 10 where 0 is no effect and 10 is complete control
Outline: as §1

morningglory = test: Test B pre/postemergence morningglory; format: in vivo, Ipomoea hederacea
Outline: as §1

wheat = test: Test B pre/postemergence wheat; format: in vivo, Triticum aestivum
Outline: as §1

crabgrass = test: Test B pre/postemergence crabgrass; format: in vivo, Digitaria sanguinalis
Outline: as §1

pigweed = test: Test B pre/postemergence pigweed; format: in vivo, Amaranthus retroflexus
Outline: as §1

corn = test: Test B pre/postemergence corn; format: in vivo, Zea mays
Outline: as §1

surinam grass = test: Test B pre/postemergence surinam grass; format: in vivo, Brachiaria decumbens
Outline: as §1

giant foxtail = test: Test B pre/postemergence giant foxtail; format: in vivo, Setaria faberii
Outline: as §1

soybean = test: Test B pre/postemergence soybean; format: in vivo, Glycine max
Outline: as §1

rape = test: Test B pre/postemergence rape; format: in vivo, Brassica napus
Outline: as §1

wild oat = test: Test B pre/postemergence wild oat; format: in vivo, Avena fatua
Outline: as §1

cocklebur = test: Test B pre/postemergence cocklebur; format: in vivo, Xanthium strumarium
Outline: as §1

[1] = Postemergence, Rate 62 g/ha, scale of 0 to 10, 0 is no effect, 10 is complete control
[2] = Postemergence, Rate 125 g/ha, scale 0 to 10, 0 is no effect, 10 is complete control
[3] = Postemergence, Rate 500 g/ha, scale 0 to 10, 0 is no effect, 10 is complete control
[4] = Preemergence, Rate 62 g/ha, scale of 0 to 10 where 0 is no effect and 10 is complete control
[5] = Preemergence, Rate 125 g/ha, scale 0 to 10, 0 is no effect, 10 is complete control
[6] = Preemergence, Rate 500 g/ha, scale of 0 to 10 where 0 is no effect and 10 is complete control
[7] = Postemergence, Rate 250 g/ha, scale 0 to 10
[8] = Preemergence, Rate 250 g/ha, scale 0 to 10, 0 is no effect, 10 is complete control
[9] = Preemergence, Rate 500 g/ha, scale 0 to 10, 0 is no effect, 10 is complete control

CC(C)N(C(=O)n1oc(=O)n(CCCF)c1=O)c1ccc(F)cc1F [Compound 500]
10: Velvetleaf plant response rating (velvetleaf; [6]) | Blackgrass plant response rating (blackgrass; [8]) | Blackgrass plant response rating (blackgrass; [6]) | Sugarbeets plant response rating (sugar beet; [5]) | Sugarbeets plant response rating (sugar beet; [6]) | Nutsedge plant response rating (purple nutsedge; [6]) | Bedstraw plant response rating (bedstraw; [9]) | Crabgrass plant response rating (crabgrass; [6]) | Plant response rating, Redroot pigweed (pigweed; [3]) | Plant response rating, Redroot pigweed (pigweed; [4]) | Redroot pigweed plant response rating (pigweed; [5]) | Redroot pigweed plant response rating (pigweed; [6]) | B. signalgrass plant response rating (surinam grass; [9]) | Giant foxtail plant response rating (giant foxtail; [5]) | Giant foxtail plant response rating (giant foxtail; [6]) | Rape plant response rating (rape; [5]) | Rape plant response rating (rape; [6]) | Wild oats plant response rating (wild oat; [6])
2: Plant response rating, Nutsedge (purple nutsedge; [3]) | Plant response rating, Wheat (wheat; [4]) | Corn plant response rating (corn; [1]) | Corn plant response rating (corn; [2]) | Corn plant response rating (corn; [7]) | Cocklebur plant response rating (cocklebur; [8]) | Cocklebur plant response rating (cocklebur; [6])
0: Nutsedge plant response rating (purple nutsedge; [1]) | Plant response rating, Nutsedge (purple nutsedge; [4]) | Plant response rating, Morningglory (morningglory; [4]) | Wheat plant response rating (wheat; [1]) | Plant response rating, Corn (corn; [4]) | Plant response rating, Soybean (soybean; [4]) | Wild oats plant response rating (wild oat; [1]) | Wild oats plant response rating (wild oat; [2]) | Plant response rating, Cocklebur (cocklebur; [4]) | Cocklebur plant response rating (cocklebur; [5])
3: Blackgrass plant response rating (blackgrass; [1]) | Morningglory plant response rating (morningglory; [1]) | Morningglory plant response rating (morningglory; [2]) | Plant response rating, Morningglory (morningglory; [3]) | B. signalgrass plant response rating (surinam grass; [1]) | Soybean plant response rating (soybean; [1]) | Soybean plant response rating (soybean; [5]) | Rape plant response rating (rape; [1]) | Rape plant response rating (rape; [2]) | Cocklebur plant response rating (cocklebur; [1]) | Cocklebur plant response rating (cocklebur; [2]) | Cocklebur plant response rating (cocklebur; [7])
4: Velvetleaf plant response rating (velvetleaf; [1]) | Velvetleaf plant response rating (velvetleaf; [2]) | Blackgrass plant response rating (blackgrass; [2]) | Soybean plant response rating (soybean; [2]) | Plant response rating, Soybean (soybean; [3])
5: Plant response rating, Velvetleaf (velvetleaf; [3]) | Plant response rating, Velvetleaf (velvetleaf; [4]) | Morningglory plant response rating (morningglory; [5]) | Plant response rating, Wheat (wheat; [3]) | Corn plant response rating (corn; [5]) | B. signalgrass plant response rating (surinam grass; [2]) | Plant response rating, Cocklebur (cocklebur; [3])
6: Blackgrass plant response rating (blackgrass; [7]) | Plant response rating, Blackgrass (blackgrass; [3]) | Sugarbeets plant response rating (sugar beet; [1]) | Sugarbeets plant response rating (sugar beet; [2]) | Wheat plant response rating (wheat; [5]) | Crabgrass plant response rating (crabgrass; [1]) | Plant response rating, Corn (corn; [3])
7: Plant response rating, Crabgrass (crabgrass; [4]) | Redroot pigweed plant response rating (pigweed; [1]) | B. signalgrass plant response rating (surinam grass; Postemergence, Rate 250 g/ha, scale 0 to 10, 0 no effect, 10 complete control) | Giant foxtail plant response rating (giant foxtail; [1]) | Plant response rating, Wild oats (wild oat; [3]) | Plant response rating, Wild oats (wild oat; [4])
9: Plant response rating, Blackgrass (blackgrass; [4]) | Blackgrass plant response rating (blackgrass; [5]) | Plant response rating, Sugarbeets (sugar beet; [3]) | Plant response rating, Sugarbeets (sugar beet; [4]) | Bedstraw plant response rating (bedstraw; [2]) | Bedstraw plant response rating (bedstraw; [7]) | Bedstraw plant response rating (bedstraw; [5]) | Bedstraw plant response rating (bedstraw; [8]) | Morningglory plant response rating (morningglory; [6]) | Crabgrass plant response rating (crabgrass; [2]) | Plant response rating, Crabgrass (crabgrass; [3]) | Crabgrass plant response rating (crabgrass; [5]) | Redroot pigweed plant response rating (pigweed; [2]) | Plant response rating, B. signalgrass (surinam grass; [4]) | B. signalgrass plant response rating (surinam grass; [5]) | B. signalgrass plant response rating (surinam grass; [8]) | Plant response rating, Giant foxtail (giant foxtail; [3]) | Plant response rating, Giant foxtail (giant foxtail; [4]) | Plant response rating, Rape (rape; [4]) | Wild oats plant response rating (wild oat; [5])
8: Velvetleaf plant response rating (velvetleaf; [5]) | Nutsedge plant response rating (purple nutsedge; [5]) | Plant response rating, Bedstraw (bedstraw; Preemergence) | Wheat plant response rating (wheat; [6]) | Crabgrass plant response rating (crabgrass; [7]) | Corn plant response rating (corn; [6]) | Plant response rating, B. signalgrass (surinam grass; [3]) | Giant foxtail plant response rating (giant foxtail; [2]) | Soybean plant response rating (soybean; [6]) | Plant response rating, Rape (rape; [3])

COCn1c(=O)on(C(=O)N(c2ccc(F)cc2F)C(C)C)c1=O [Compound 503]
6: Plant response rating, Velvetleaf (velvetleaf; [4]) | Velvetleaf plant response rating (velvetleaf; [5]) | Sugarbeets plant response rating (sugar beet; [5]) | Bedstraw plant response rating (bedstraw; [8]) | Plant response rating, B. signalgrass (surinam grass; [4]) | Plant response rating, Wild oats (wild oat; [4])
2: Plant response rating, Sugarbeets (sugar beet; [4]) | Nutsedge plant response rating (purple nutsedge; [6]) | Plant response rating, Morningglory (morningglory; [4]) | Morningglory plant response rating (morningglory; [5]) | Wheat plant response rating (wheat; [5]) | Plant response rating, Soybean (soybean; [4])
0: Plant response rating, Nutsedge (purple nutsedge; [4]) | Nutsedge plant response rating (purple nutsedge; [5]) | Plant response rating, Wheat (wheat; [4]) | Plant response rating, Cocklebur (cocklebur; [4]) | Cocklebur plant response rating (cocklebur; [5]) | Cocklebur plant response rating (cocklebur; [8])
8: Velvetleaf plant response rating (velvetleaf; [6]) | Wheat plant response rating (wheat; [6]) | Plant response rating, Crabgrass (crabgrass; [4]) | Crabgrass plant response rating (crabgrass; [5]) | Plant response rating, Redroot pigweed (pigweed; [4]) | B. signalgrass plant response rating (surinam grass; [5]) | B. signalgrass plant response rating (surinam grass; [8]) | Rape plant response rating (rape; [5])
10: Plant response rating, Blackgrass (blackgrass; [4]) | Blackgrass plant response rating (blackgrass; [6]) | Bedstraw plant response rating (bedstraw; [9]) | Redroot pigweed plant response rating (pigweed; [5]) | Redroot pigweed plant response rating (pigweed; [6]) | Giant foxtail plant response rating (giant foxtail; [6]) | Wild oats plant response rating (wild oat; [5])
5: Plant response rating, Bedstraw (bedstraw; Preemergence) | Bedstraw plant response rating (bedstraw; [5]) | Corn plant response rating (corn; [5])
3: Plant response rating, Corn (corn; [4]) | Soybean plant response rating (soybean; [5]) | Cocklebur plant response rating (cocklebur; [6])
9: Blackgrass plant response rating (blackgrass; [5]) | Blackgrass plant response rating (blackgrass; [8]) | Sugarbeets plant response rating (sugar beet; [6]) | Crabgrass plant response rating (crabgrass; [6]) | Corn plant response rating (corn; [6]) | B. signalgrass plant response rating (surinam grass; [9]) | Plant response rating, Giant foxtail (giant foxtail; [4]) | Giant foxtail plant response rating (giant foxtail; [5]) | Rape plant response rating (rape; [6]) | Wild oats plant response rating (wild oat; [6])
4: Plant response rating, Rape (rape; [4])
7: Morningglory plant response rating (morningglory; [6]) | Soybean plant response rating (soybean; [6])
